Here are results for 1 molecule from article PMC12683216, “Using High‐Throughput Screening to Identify Crosslinking Peptides That Control Cell‐Mediated Matrix Degradation” (Advanced Healthcare Materials, 2025).

The structures appear in SMILES notation. Like-named read-outs stand apart in the source and are kept apart here. Where a SMILES comes first, the peptide text is derived from it. [ ]: non-standard residue; d: D form. βAla = NCCC(=O)O

Data set [1] has as its system T1, MMP-14.
T1 construct: purchased antibodies.com
The experiment in a line: Peptide degradation with added exogenous recombinant MMP-14 (LC-MS). As to conditions: human, Figure 7 study, recombinant MMP-14 0.5 nM, 24 h, LC-MS, N = 3 with technical triplicates. The format is in vitro ADME. The procedure: To verify that MMP‐14 can degrade the KLVAD‐LM and PanMMP peptides, recombinant MMP‐14 was added to the different peptides, both in PBS and in the Cell and Media culture conditions (Figure 7 ). Peptides were incubated under three conditions: in fresh cell culture media (“Blank”), in media with cells present (“Cells”), and in cell‐conditioned media (“Media”). This was done for both hMSCs and hUVECs, and was also done with and without the addition of exogenous MMP.
The extent of peptide degradation was quantified for samples both with and without the addition of exogenous MMP‐14. […] Error bars indicate ± standard deviation, N = 3 with technical triplicates.
hUVECs (75000 per well) or hMSCs (36000 per well) were seeded into a 48 well plate, and 500 µL media was added to the wells. […] The peptide libraries were dissolved at a stock solution of 10 mM total peptide content. For libraries containing 38 peptides, 95 µL of the stock solution was added to each well; for libraries with 19 peptides, 47.5 µL was added to each well, and media was taken at 0 and 24 h. Add 4 µL of acetic acid to all collected media in the LC‐MS plates and store them in a −80 °C freezer to prevent further proteolytic degradation. From each sample, 10 µL of crude solution was introduced by the LC‐MS through a Thermo Scientific Vanquish LC System (Thermo Fisher Scientific), which outputted to a Thermo Scientific LTQ XL Linear Ion Trap Mass Spectrometer (Thermo Fisher Scientific). The sampled mixture was trapped on a column (ProntoSIL C18 AQ, 120 Å, 3 µm, 2.0 x 50 mm HPLC Column, PN 0502F184PS030, MAC‐MOD Analytical Inc.). The samples were loaded onto the column with a solvent containing acetonitrile/water, 5:95 (v/v) containing 1% acetic acid at a flow rate of 300 µL min^−1 and held for 1 min. The sample was then eluted from the column with a linear gradient of 5–40% Solvent B (1% acetic acid in acetonitrile) at the same flow rate for 5 min. This was followed by a 1 min ramp up to 100% Solvent B, where it was re‐equilibrated with Solvent A (1% acetic acid) to 5% solvent B over the course of 1 min and held there for 2 min. The column temperature was kept at a constant 29 °C, and the mass spectrometer was operated in positive ion mode. Using a Heated ESI, the Source Voltage was set to 4.1 kV, and the capillary temperature was 350 °C. For non‐library degradation studies, 2.5 µL of 10 mM peptide stock solution for each peptide was added.
To assess the activity of the conditioned media, the media were divided into two equal portions. One portion was used for a standard degradation study, while the other was cultured for an additional 24 h before the PanMMP and KLVADLMASAE were added. After 24 h of incubation, the media were collected for further analysis. To assess the impact of recombinant MMP‐14 on PanMMP and KLVADLMASAE, recombinant MMP‐14 (antibodies.com) was dissolved in the media at a concentration of 0.5 nM. The remaining steps followed the standard degradation study protocol.
For all degradation studies using soluble peptides, a non‐proteolytically degradable NH2‐βFβAβAβAβAβAβA‐amide (βFβA6) peptide, where βF is β‐phenylalanine and βA is β‐alanine, was added at a 50 µM concentration and used as an internal standard. Peptide degradation ratios were measured by LC‐MS and analyzed by Xcalibur. The relative concentrations of the peptide were calculated by the ratio of the peak area of the peptide and the peak area of βFβA6.

The nature of data set [2]: Soluble peptide degradation, Media condition (cell-conditioned media, LC-MS). The format is in vitro ADME, human. As to conditions: 24 h, LC-MS. Summed up: (§1)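 Pooled peptide library added to medium conditioned by hUVECs or hMSCs with cells removed. Fraction remaining after 24 h measured by LC-MS (positive-ion ESI). Value is peptide peak area relative to 50 µM non-degradable βFβA6 internal standard.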

Experiment in data set [3]: as above
The format is in vitro ADME, human. As to conditions: 24 h, LC-MS. Summed up:
as §1
The source holds these as a separate data set.

The nature of data set [4]: Soluble peptide degradation, Cells condition (LC-MS). The format is in vitro ADME, human. To be noted: human, 24 h, LC-MS; for remaining at 24 h: Figure 2B heatmap, ratio to βFβA6 internal standard, 24 h / 0 h, N = 5. Summed up:
(§2)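 Pooled synthetic TAILS-derived peptides added to hUVEC or hMSC cultures (Cells) or cell-free conditioned media (Media); MMP-14 inhibitor NSC 405 020 at 10 µM final. Samples taken at 0 and 24 h, acidified, analysed by LC-MS; peak areas normalised to 50 µM βFβA6 internal standard, 24 h/0 h gives fraction remaining.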

The next data set has as its system hUVECs. The description is as above. As to conditions: 24 h, LC-MS. The format is in vitro ADME, human. Summed up: as §2
Another data set relates to hMSCs. The data set is described as above. The format is in vitro ADME, human. Summed up: as §2
For data set [5], the system named is MMP-14. Described as above. The format is in vitro ADME, human. As to conditions: human, with NSC 405 020 (MMP-14 inhibitor); Figure 3C; 50 µM peptide, media on hUVECs with MMP-14 inhibitor NSC 405 020 10 µM; 24 h; LC-MS; N = 6; read-out: Fraction of peptide remaining after 24 hours: hUVEC +Inhibitor. Summed up:
as §2

Setting [6] is: Figure 3C, 50 µM soluble peptide, N = 6.

For the molecule `CC[C@H](C)[C@H](NC(=O)CNC(=O)[C@H](CCC(N)=O)NC(=O)[C@@H]1CCCN1C(=O)CNC(=O)CCNC(C)=O)C(=O)N[C@@H](Cc1c[nH]c2ccccc12)C(=O)NCC(=O)N[C@@H](CCC(N)=O)C(=O)NCCC(N)=O` [PanMMP, reference compound] (Ac-[βAla]GPQGIWGQ[βAla]-NH2), the amount remaining at 24 h, 50 µM with MMP-14 [1] (read-out: peptide remaining in hMSC conditioned media with added MMP‐14) came to 84%; in the data set on MMP-14 [1] (read-out: peptide remaining in hUVEC conditioned media with added MMP‐14) it was 72%; in data set [2] (human, hUVEC-conditioned media without cells, no exogenous MMP-14, Figure 7 study, N = 3 with technical triplicates, read-out: peptide remaining in hUVEC conditioned media without exogenous MMP-14), 78%; in data set [3] (human, hMSC-conditioned media without cells, no exogenous MMP-14, Figure 7 study, N = 3 with technical triplicates, read-out: peptide remaining in hMSC conditioned media without exogenous MMP-14) it was 85%; in the data set with MMP-14 [5], 95%. Further, the “peptide remaining, Media condition, hUVECs” value in data set [2] (setting [6]) stood at 89%. The “Fraction of peptide remaining after 24 hours: hUVEC Media” value in data set [2] (Figure 3C, individually synthesized soluble peptide, 50 µM, hUVEC-conditioned media without cells, ratio to βFβA6, N = 6) is 0.89. Also, the amount remaining at 24 h turned out to be 93% in data set [2] (human, Figure 2B heatmap, pooled TAILS-derived soluble peptides in 24 h hUVEC-conditioned media without cells, ratio to βFβA6 internal standard, 24 h / 0 h, N = 5, read-out: Fraction of peptide remaining at 24 hours: hUVEC Media); 86% in data set [3] (human, Figure 2B heatmap, pooled TAILS-derived soluble peptides in 24 h hMSC-conditioned media without cells, ratio to βFβA6 internal standard, 24 h / 0 h, N = 5, read-out: Fraction of peptide remaining at 24 hours: hMSC Media); 39% in data set [4] (hMSCs in culture with fresh media (Cells condition), pooled TAILS-derived soluble peptides (Ac-βAla N-terminus, βAla-amide C-terminus) in media on hMSCs (36000 per well, 48 well plate, 500 µL), read-out: Fraction of peptide remaining at 24 hours: hMSC Cells); 69% in data set [4] (hUVECs in culture with fresh media (Cells condition), pooled TAILS-derived soluble peptides in media on hUVECs (75000 per well, 48 well plate, 500 µL), read-out: Fraction of peptide remaining at 24 hours: hUVEC Cells). For the same molecule, the “peptide remaining, Media condition, hMSCs” value in data set [3] (setting [6]) is listed as 85%. In data set [3] (Figure 3C, individually synthesized soluble peptide, 50 µM, hMSC-conditioned media without cells, ratio to βFβA6, N = 6), the “Fraction of peptide remaining after 24 hours: hMSC Media” value is recorded as 0.85. Further, the metabolised at 24 h in data set [4] (hMSCs in culture with fresh media (Cells condition), Figure 2B screen, hMSCs, read-out: amount of degradation in the Cells condition) was 61%. Further, in the data set on hUVECs (Figure 3C, individually synthesized soluble peptide, 50 µM, media on hUVECs, ratio to βFβA6, N = 6), the “Fraction of peptide remaining after 24 hours: hUVEC Cells” value turned out to be 0.77. The “degradation after 24 h, Cells + Inhibitor, cultured with hUVECs” value in the data set with hUVECs (NSC 405 020 10 µM) is recorded as “greater than 2%”. In addition, the “peptide remaining, Cells + MMP-14 inhibitor, hMSCs” value in the data set on hMSCs (24 h, 50 µM) stood at 78%. The “Fraction of peptide remaining after 24 hours: hMSC +Inhibitor” value with hMSCs (Figure 3C, 50 µM peptide, media on hMSCs with MMP-14 inhibitor NSC 405 020 10 µM, 24 h, LC-MS, N = 6) stood at 0.78. Besides, the “peptide remaining after 24 h, Cells condition, hMSCs” value in the data set with hMSCs (Figure 3C, 50 µM soluble peptide, LC-MS, N = 6) was 35%. Further, the “Fraction of peptide remaining after 24 hours: hMSC Cells” value in the data set with hMSCs (Figure 3C, individually synthesized soluble peptide, 50 µM, media on hMSCs, 24 h, LC-MS, ratio to βFβA6, N = 6) was found to be 0.35.

The term amount remaining denotes the share of the starting amount still present when the sample was taken.
